This data set is described as follows: Particle size distribution (Dv10, Dv50, Dv90, span) of processed API particles. The class given is physicochemical. The source says: The most common approach for expressing particle size results is to report Dv10, Dv50, and Dv90 values based on a volume distribution. The span calculation [(Dv90−Dv10)/Dv50] is the most common format to express distribution width.
The terms Dv10, Dv50, and Dv90 as discussed herein are known to those skilled in the art. Dv50 refers to the maximum particle diameter below which 50% of the sample volume exists. Dv90 refers to the maximum particle diameter below which 90% of the sample volume exists. Dv10 refers to the maximum particle diameter below which 10% of the sample volume exists. The term particle size distribution span refers to the result of the calculation [(Dv90−Dv10)/Dv50].

Where [1] appears, read: Example 1, after aging for 20 hours without stirring at room temperature.
The mark [2] stands for this setting: Example 1, product isolated by spray drying (100° C.) after distillation to approx. 100% heptane.
The mark [3] stands for this setting: Example 1, suspension in n-heptane/ethyl acetate, after particle size reduction (microfluidizer 400 bar, 50 cycles).
[4] abbreviates: Comparison, process of WO2011131947 (water), product isolated by spray drying (45° C.).
Where [5] appears, read: Comparison, process of WO2011131947, suspension in anti-solvent water, after size reduction (750 bar, 45 cycles).
The mark [6] stands for this setting: Example 2, invention, product isolated by spray drying (45° C.).
[7] abbreviates: Example 2, invention, suspension in water/acetone, after particle size reduction (microfluidizer 750 bar, 45 cycles).
Setting [8] is: Example 2, invention, water/acetone, after aging for 22 hours.

Consider `C[N+]1(C)[C@@H]2C[C@@H](OC(=O)C(O)(c3cccs3)c3cccs3)C[C@H]1[C@@H]1O[C@@H]12` [Tiotropium Bromide], for which, under setting [1], the Dv10 is reported as 0.78 μm, the Dv50 is on record as 3.33 μm, the Dv90 is recorded as 7.45 μm and the “span [(Dv90-Dv10)/Dv50]” value stood at 2.0. Under setting [2], the Dv10 is listed as 0.83 μm, the Dv50 amounted to 3.02 μm, the Dv90 is listed as 7.05 μm and the “span [(Dv90-Dv10)/Dv50]” value was 2.1. For the same molecule, under setting [3], the Dv10 is 0.67 μm, the Dv50 is given as 2.98 μm, the Dv90 is given as 7.09 μm and the “span [(Dv90-Dv10)/Dv50]” value amounted to 2.2.

With `CCC(=O)O[C@]1(C(=O)SCF)[C@H](C)C[C@H]2[C@@H]3C[C@H](F)C4=CC(=O)C=C[C@]4(C)[C@@]3(F)[C@@H](O)C[C@@]21C` [Fluticasone propionate], the Dv10 by setting is: under setting [4], 0.99 μm; under setting [5], 1.28 μm; under setting [6], 1.38 μm; under setting [7], 0.92 μm; under setting [8], 1.42 μm. For the same molecule, the Dv50 came out at 1.94 μm under setting [4]; 2.44 μm under setting [5]; 2.42 μm under setting [6]; 1.81 μm under setting [7]; 2.53 μm under setting [8]. Moreover, the Dv90 is 3.60 μm under setting [4]; 4.45 μm under setting [5]; 4.18 μm under setting [6]; 3.39 μm under setting [7]; 4.43 μm under setting [8]. Also, the “span [(Dv90-Dv10)/Dv50]” value is recorded as 1.4 under setting [4]; 1.3 under setting [5]; 1.2 under setting [6]; 1.4 under setting [7]; 1.2 under setting [8].
